Marks after values point to notes of the source that are not given here.

Data on two compounds can be found in US8623909B2, “Prophylactic/therapeutic agents for lifestyle-related diseases” (priority 2008, dated 2014).

The subject of assay [1] is ORX rats. Briefly: Plasma LH concentration in ORX rats. Type of assay: in vivo, rat. To be noted: for Plasma LH concentration: solvent 10.3, sham 1.7; for Effect on LH levels (in words): 1 and 10 mg/Kg. An excerpt: (§1) After housing the animals, the animals were anesthetized with ether, and underwent bilateral orchiectomy (orchiectomized rats: ORX) or a sham treatment. After awaking from the anesthesia, the animals were assigned to test groups of 3 to 5 animals each. […] After 21 days, the rats were sacrificed by exsanguination from the abdominal artery, the ventral prostates and anal levator muscle were excised and weighed followed by immersing in RNAlater (Nacalai Tesque) for extraction of RNA. In addition, soft tissue was removed from the right femur, and immersed in 75% ethanol followed by storage for subsequent measurement of the bone mineral density. Moreover, liver and visceral fat tissue were collected and immersed in RNAlater for RNA extraction.
Characteristics of the effect of compounds on the pituitary gland were investigated by measuring plasma concentrations of LH and FSH in ORX rats treated in the aforementioned section (4)-1).

Assay [2] relates to ORX rats. Briefly: Plasma triglyceride level in ORX rats. To be noted: for Plasma triglyceride concentration: solvent 130.7, sham 236.5; for Effect on triglyceride levels (in words): 1 and 10 mg/Kg. Type of assay: in vivo, rat.
Excerpt: as §1
(§2) Plasma triglyceride and cholesterol levels were measured to characterize the metabolic profiles of ORX rats treated in the aforementioned section (4)-1).

The subject of assay [3] is PSA promoter. As to the kind of experiment: PSA promoter-luciferase activity in LNCaP cells (dual-luciferase reporter). It counts as cell-based, human. As to the method: Plasmid pCMV-hAR was constructed based on a method previously reported by the inventors of the present invention (J. Biol. Chem., 282, 7329-7338). In addition, reporter plasmids consisting of PGL3-PSA (human) and PGL3-UCP-1 (mouse) were also constructed based on a method previously reported by the inventors of the present invention (Diabetes, 54, 1000-1008). Furthermore, pRL-SV40 was acquired commercially.
NIH-3T30-L1 mouse preadipocytes were cultured in Dulbecco's modified Eagle's medium (Sera Laboratories) containing 10% fetal calf serum. In addition, cells of human prostate cancer cell line LNCap were cultured in RPMI 1640 medium (Sigma) containing 10% fetal calf serum. Furthermore, these two types of cell lines were obtained from the American Type Culture Collection (Manassas).
The NIH-3T3-L1 cells of 2) above were co-transfected with pCMV-hAR, pRL-SV40 and PGL3-UCP-1 (mouse) in a 24-well plate using an Effectene Transfection Kit (Qiagen) and a Fugene HD Kit (Roche Diagnostics). In addition, the LNCaP cells of 2) above were similarly co-transfected with pCMV-hAR, pRL-SV40 and PGL3-PSA (human).
4) Measurement of Effect on PSA Promoter-Luciferase Activity in LNCaP Cells
The LNCaP cells co-transfected in 3) above were cultured for 24 hours in DMEM or RPMI 1640 containing 10% fetal calf serum treated with dextran-charcoal and a test compound (dissolved in a small amount of DMSO) 24 hours after transfection. Subsequently, the activities of firefly luciferase and Renilla luciferase were assayed in a 24-well plate using the Dual-Luciferase Reporter Assay System (Promega) in accordance with the protocol of Minilumat LB9507 (Berthold Technologies). Furthermore, the value of firefly luciferase activity were normalized based on the internal Renilla control, and were presented as relative luciferase activity.

For assay [4], the system named is ORX rats. Briefly: Vertebral bone mineral density in ORX rats. Type of assay: in vivo, rat. The settings on record: for Vertebral BMD: solvent 762.7, sham 770.8. The method, then: (§3) 11-week-old, male Sprague-Dawley (SD) rats (320 to 340 g, purchased from Charles River Japan) were housed for 1 week in a room maintained at a light-dark cycle of 12 hours per day and controlled at a set temperature and humidity while allowing free access to a commercially available standard rodent diet and water.
(§4) After housing the animals, the animals were anesthetized with ether, and underwent bilateral orchiectomy (orchiectomized rats: ORX) or a sham treatment. After awaking from the anesthesia, the animals were assigned to test groups of 3 to 5 animals each. Starting on the day after surgery, the animals were subcutaneously injected once a day with an injection solution of the test compound (prepared by dissolving the test compound in a small amount of DMSO and diluting with olive oil for animal testing (consisting of 95% olive oil and 5% DMSO)) at the rate of 0.1 ml/100 g of body weight. After 21 days, the rats were sacrificed by exsanguination from the abdominal artery, the ventral prostates and anal levator muscle were excised and weighed followed by immersing in RNAlater (Nacalai Tesque) for extraction of RNA. In addition, soft tissue was removed from the right femur, and immersed in 75% ethanol followed by storage for subsequent measurement of the bone mineral density. Moreover, liver and visceral fat tissue were collected and immersed in RNAlater for RNA extraction.
(§5) The anabolic effect of compounds was studied by using as indicators changes in anal levator muscle weight and bone mineral density (BMD) of the femur and vertebra in the ORX rats treated in the aforementioned section (4)-1).
(§6) BMD value of epiphyseal cancellous bone of the femur and vertebra of ORX rats treated in the aforementioned section (4)-1) were measured using Scan Xmate-A100S (Comscantecno).

Assay [5] has as its system CPT-1 mRNA. As to the kind of experiment: CPT-1 mRNA level in liver and visceral fat of ORX rats. It counts as in vivo, rat.
Excerpt: as §1
(§7) Total RNA in various tissues of the ORX rats was isolated using the RNeasy Mini Kit or RNeasy Fibrous Tissue Mini Kit (Qiagen). 1 μg of this total RNA was subjected to reverse transcription using the QuantiaTect Reverse Transcription Kit (Qiagen). Next, cDNA was subjected to real-time PCR analysis using LightCycler (Roche Diagnostics) and each of the transcription products was quantified. Furthermore, PCR was carried out in 20 μl of a reaction mixture under the following conditions using SYBR Premix Ex Taq (Takara Biotechnology): 50 cycles consisting of denaturation for 5 seconds at 95° C., annealing for 20 seconds at 60° C. and elongation for 25 seconds at 72° C. In addition, glyceraldehyde-3-phosphate dehydrogenase (GAPDH) mRNA was simultaneously amplified as an internal standard, and the real-time PCR value of each transcription product were calculated as a relative value based on GAPDH.
In addition, mRNA levels of insulin receptor substrate 2 (IRS-2) in the liver were also measured.

Assay [6] relates to PSA mRNA. As to the kind of experiment: PSA mRNA expression level in ORX rat prostates. Type of assay: in vivo. The settings on record: ORX rats; for PSA mRNA/GAPDH mRNA in prostates: 21 days, solvent 1.0, sham 114.4.
Excerpt: as §1, §7
The PSA mRNA expression levels in the prostates of the ORX rats obtained in the aforementioned section (4)-1) were measured according to the method of section (4)-3).

In assay [7] the test system is ORX rats. Briefly: Plasma cholesterol level in ORX rats. The settings on record: for Plasma cholesterol concentration: solvent 78.0, sham 64.8; for Effect on cholesterol levels (in words): 1 and 10 mg/Kg. Type of assay: in vivo, rat.
Excerpt: as §1, §2

For assay [8], the system named is ORX rats. As to the kind of experiment: Femoral bone mineral density in ORX rats. It counts as in vivo, rat. To be noted: solvent 465.3, sham 517.1. The method, then: as §3, §4, §5, §6
Setting [9] is: liver, 1 mg/Kg, solvent 1.4, sham 1.0.
Where [10] appears, read: liver, 10 mg/Kg, solvent 1.4, sham 1.0.
Setting [11] is: visceral fat, 1 mg/Kg, solvent 1.7, sham 1.0.
The mark [12] stands for this setting: visceral fat, 10 mg/Kg, solvent 1.7, sham 1.0.

For `CC(=O)[C@H]1CCC2C3CCc4c(C)cccc4C3CC[C@@]21C` (stereo partly shown) [Compound of formula (Ia)], the figures for the “Plasma LH concentration” value in assay [1] (1 mg/Kg) and in assay [1] (10 mg/Kg) were 12.6** ng/mL and 19.9*^,## ng/mL, respectively. Also, in assay [1], the “Effect on LH levels (in words)” value is “did not inhibit LH levels, but rather increased LH levels dose-dependently”. The values for the Plasma triglyceride concentration in assay [2] (1 mg/Kg) and in assay [2] (10 mg/Kg) were 41.3** mg/dL and 39.3** mg/dL, respectively. Also, the “Effect on triglyceride levels (in words)” value in assay [2] is listed as “lowered triglyceride levels considerably”. The “Value of luciferase transcription activity (PSA promoter, relative luciferase activity)” value in assay [3] (10^−5M, 24 hours, control (DMSO) 1.0) worked out at 1.3. For the same compound, the “Vertebral BMD” value in assay [4] (1 mg/Kg) was determined as 769.5 mg/mL; in assay [4] (10 mg/Kg), 770.3 mg/mL; in assay [4] (30 mg/Kg), 775.1 mg/mL. In addition, in assay [5] (liver and visceral fat), the “CPT-1 mRNA levels (in words)” value was “higher in comparison with dihydrotestosterone”. Also, the “CPT-1 mRNA/GAPDH mRNA level” value in assay [5] (setting [9]) is recorded as 3.2**^,#; in assay [5] (setting [10]), 4.2*; in assay [5] (setting [11]), 2.0; in assay [5] (setting [12]), 2.6. For the same compound, the “PSA mRNA/GAPDH mRNA in prostates” value is listed as 1.0** in assay [6] (1 mg/Kg s.c. once a day) and 1.2** in assay [6] (10 mg/Kg s.c. once a day). Also, in assay [6] (1 and 10 mg/Kg), the “Change in prostate PSA mRNA levels (in words)” value is listed as “no changes observed”. The Plasma cholesterol concentration in assay [7] (1 mg/Kg) is reported as 66.0 mg/dL; in assay [7] (10 mg/Kg), 71.5 mg/dL. Moreover, the “Effect on cholesterol levels (in words)” value in assay [7] is on record as “did not have an effect on cholesterol levels”. Moreover, the figures for the “Femoral BMD” value in assay [8] (1 mg/Kg), in assay [8] (10 mg/Kg) and in assay [8] (30 mg/Kg) were 447.2 mg/mL, 454.0 mg/mL and 475.9 mg/mL, respectively.
As to `C[C@]12CCC(=O)C[C@@H]1CC[C@@H]1[C@@H]2CC[C@]2(C)[C@@H](O)CC[C@@H]12` [Dihydrotestosterone, 5α-dihydrotestosterone, reference compound], in assay [1], the “Effect on LH levels (in words)” value is on record as “inhibited LH levels”. Further, the “Effect on triglyceride levels (in words)” value in assay [2] is recorded as “raised triglyceride levels”. In addition, the “PSA promoter activity stimulation” value in assay [3] (10^−7 M or 10^−8 M) was “roughly 9 fold”. For the same compound, the “Vertebral BMD” value in assay [4] (1 mg/Kg) came out at 768.4 mg/mL; in assay [4] (10 mg/Kg), 763.2 mg/mL. For the same compound, the “Effect on vertebral BMD (in words)” value in assay [4] (1 and 10 mg/Kg) was “did not have an effect on vertebral BMD”. Besides, the “CPT-1 mRNA/GAPDH mRNA level” value in assay [5] (setting [9]) is recorded as 1.3; in assay [5] (setting [10]) it was 0.4; in assay [5] (setting [11]) it was 1.7; in assay [5] (setting [12]) it was 0.8. Besides, the “PSA mRNA/GAPDH mRNA in prostates” value in assay [6] (1 mg/Kg s.c. once a day) is reported as 211.4**^,##; in assay [6] (10 mg/Kg s.c. once a day), 209.8**^,##. In assay [6] (1 and 10 mg/Kg), the “Increase of prostate PSA mRNA level in comparison with the sham treatment group” value is reported as “about 1.8 fold”. Further, the “Effect on cholesterol levels (in words)” value in assay [7] is reported as “lowered cholesterol levels”. The “Femoral BMD” value in assay [8] (1 mg/Kg) was determined as 472.0 mg/mL; in assay [8] (10 mg/Kg), 473.6 mg/mL.
